We go through 21 molecules from the Kinase Knowledgebase extract (Sharma et al. 2016).

Usually IC50 stands for the midpoint of a concentration-inhibition curve.

One test concerns the target PIK3CG (human) (UniProt P48736). As to the kind of experiment: Assessment of PIK3CG Kinase Activity.
The target of the next test is PIK3CA (human) (UniProt P42336). The experiment in a line: Assessment of PIK3CA Kinase Activity.
Chain of PIK3CA (human) (P42336 whole entry, looked up): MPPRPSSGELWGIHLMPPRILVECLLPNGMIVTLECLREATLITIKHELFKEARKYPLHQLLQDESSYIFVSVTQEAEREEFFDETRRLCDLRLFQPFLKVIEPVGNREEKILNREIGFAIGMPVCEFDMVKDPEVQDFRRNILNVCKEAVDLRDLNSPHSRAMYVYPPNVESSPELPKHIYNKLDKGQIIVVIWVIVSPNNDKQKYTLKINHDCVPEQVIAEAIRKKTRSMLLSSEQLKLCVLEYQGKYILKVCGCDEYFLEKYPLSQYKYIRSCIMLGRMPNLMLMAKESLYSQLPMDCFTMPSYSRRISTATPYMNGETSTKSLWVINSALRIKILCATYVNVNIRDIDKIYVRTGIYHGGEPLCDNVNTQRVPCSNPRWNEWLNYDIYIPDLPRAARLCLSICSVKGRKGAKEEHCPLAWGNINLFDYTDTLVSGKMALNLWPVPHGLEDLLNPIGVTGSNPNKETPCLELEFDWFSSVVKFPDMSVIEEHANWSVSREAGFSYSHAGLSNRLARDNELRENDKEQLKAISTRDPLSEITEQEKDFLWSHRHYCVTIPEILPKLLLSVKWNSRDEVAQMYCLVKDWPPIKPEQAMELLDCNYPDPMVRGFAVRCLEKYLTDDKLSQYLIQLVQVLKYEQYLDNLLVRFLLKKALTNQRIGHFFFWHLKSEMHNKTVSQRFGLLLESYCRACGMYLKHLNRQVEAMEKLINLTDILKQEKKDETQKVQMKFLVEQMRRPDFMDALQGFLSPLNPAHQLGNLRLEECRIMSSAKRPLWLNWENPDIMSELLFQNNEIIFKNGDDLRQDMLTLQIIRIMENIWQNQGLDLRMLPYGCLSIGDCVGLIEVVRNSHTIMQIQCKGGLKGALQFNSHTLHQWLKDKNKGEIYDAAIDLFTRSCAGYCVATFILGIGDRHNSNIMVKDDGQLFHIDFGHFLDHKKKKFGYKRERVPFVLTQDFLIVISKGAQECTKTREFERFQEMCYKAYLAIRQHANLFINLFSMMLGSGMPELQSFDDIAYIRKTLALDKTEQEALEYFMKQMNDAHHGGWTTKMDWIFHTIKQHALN

Chain of PIK3CG (human) (P48736 whole entry, looked up): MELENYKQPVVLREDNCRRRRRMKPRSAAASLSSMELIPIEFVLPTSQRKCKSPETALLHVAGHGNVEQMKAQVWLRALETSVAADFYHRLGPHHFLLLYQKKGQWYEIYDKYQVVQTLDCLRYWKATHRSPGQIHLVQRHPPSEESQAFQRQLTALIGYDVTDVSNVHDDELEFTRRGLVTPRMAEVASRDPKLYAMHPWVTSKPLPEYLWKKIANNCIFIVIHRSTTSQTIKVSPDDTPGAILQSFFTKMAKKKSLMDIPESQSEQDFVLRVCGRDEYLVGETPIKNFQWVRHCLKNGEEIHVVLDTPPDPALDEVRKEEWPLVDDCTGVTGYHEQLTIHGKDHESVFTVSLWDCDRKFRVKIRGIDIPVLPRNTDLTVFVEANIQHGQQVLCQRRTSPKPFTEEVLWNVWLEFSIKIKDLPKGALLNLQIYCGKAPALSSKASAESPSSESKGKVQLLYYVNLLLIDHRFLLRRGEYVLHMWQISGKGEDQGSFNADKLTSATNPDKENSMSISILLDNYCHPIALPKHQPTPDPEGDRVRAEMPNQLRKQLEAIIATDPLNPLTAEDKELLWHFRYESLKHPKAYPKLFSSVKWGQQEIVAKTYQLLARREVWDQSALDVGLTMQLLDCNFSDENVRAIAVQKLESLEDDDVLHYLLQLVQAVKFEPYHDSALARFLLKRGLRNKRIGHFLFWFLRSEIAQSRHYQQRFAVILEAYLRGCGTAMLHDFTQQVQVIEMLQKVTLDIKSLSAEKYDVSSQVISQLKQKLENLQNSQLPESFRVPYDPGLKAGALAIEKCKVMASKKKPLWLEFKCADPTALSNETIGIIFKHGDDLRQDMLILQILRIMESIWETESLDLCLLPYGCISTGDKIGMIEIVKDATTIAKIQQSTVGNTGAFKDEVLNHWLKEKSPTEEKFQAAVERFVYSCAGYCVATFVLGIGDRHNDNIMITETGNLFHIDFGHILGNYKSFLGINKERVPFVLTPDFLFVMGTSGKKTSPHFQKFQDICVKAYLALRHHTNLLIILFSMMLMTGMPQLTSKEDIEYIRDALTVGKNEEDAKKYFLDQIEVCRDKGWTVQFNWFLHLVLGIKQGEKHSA

As for `O=C(Nc1ccc(-c2nc3c(c(N4CCOCC4)n2)CNC3)cc1)Nc1cccnc1`, the IC50 amounted to 68 nM against PIK3CG (human) and 5 nM at PIK3CA (human).
On to `CS(=O)(=O)N1Cc2nc(-c3ccc(NC(=O)Nc4cccnc4)cc3)nc(N3C4CCC3COC4)c2C1`, for which the 50% inhibitory concentration (IC50) is above 10000 nM on PIK3CG (human) and 732 nM at PIK3CA (human).
For the molecule `CNC(=O)Nc1ccc(-c2nc3c(c(N4CC5CCC(C4)O5)n2)CN(S(C)(=O)=O)C3)cc1`, the figures for the IC50 at PIK3CG (human) and against PIK3CA (human) were 116 nM and 6 nM, respectively.
For `O=C(Nc1ccc(-c2nc3c(c(N4C5CCC4COC5)n2)CCNC3)cc1)Nc1cccnc1`, the IC50 at PIK3CG (human) was above 10000 nM; against PIK3CA (human), 1790 nM.
As to `O=C(Nc1ccc(-c2nc3c(c(N4CCOCC4)n2)CCNC3)cc1)Nc1cccnc1`, the concentration for half-maximal inhibition (IC50) against PIK3CG (human) worked out at 715 nM; against PIK3CA (human) it was 66 nM.
Taken in the same sequence, the figures for `CNC(=O)Nc1ccc(-c2nc3c(c(N4CC5CCC(C4)O5)n2)CCN(C)C3)cc1` were above 10000 nM and 3340 nM.
With `O=C(Nc1ccc(-c2nc3c(c(N4CC5CCC(C4)O5)n2)CNC3)cc1)Nc1cccnc1`, the half-maximal inhibitory concentration (IC50) at PIK3CG (human) was found to be 1860 nM; on PIK3CA (human) it was 59 nM.
Take `CN(C)C1CCN(C(=O)c2ccc(NC(=O)Nc3ccc(-c4nc5c(c(N6CCOCC6)n4)CCN(S(C)(=O)=O)C5)cc3)cc2)CC1`: the IC50 at PIK3CG (human) worked out at 3110 nM; against PIK3CA (human) it was 315 nM.
On to `CN(C)C1CCN(C(=O)c2ccc(NC(=O)Nc3ccc(-c4nc5c(c(N6CCOCC6)n4)CCNC5)cc3)cc2)CC1`, for which the figures for the half-maximal inhibitory concentration (IC50) against PIK3CG (human) and against PIK3CA (human) were 224 nM and 31 nM, respectively.
In the case of `CN(C)C1CCN(C(=O)c2ccc(NC(=O)Nc3ccc(-c4nc5c(c(N6CC7CCC(C6)O7)n4)CCNC5)cc3)cc2)CC1`, the values for the half-maximal inhibitory concentration (IC50) at PIK3CG (human) and on PIK3CA (human) were 3950 nM and 1120 nM, respectively.
For `O=C(Nc1ccc(-c2nc3c(c(N4C5CCC4COC5)n2)CNC3)cc1)Nc1cccnc1`, the IC50 on PIK3CG (human) was 841 nM; against PIK3CA (human), 25 nM.
Regarding `CN1CCc2c(nc(-c3ccc(NC(=O)Nc4cccnc4)cc3)nc2N2CCOCC2)C1`, the IC50 amounted to 1370 nM against PIK3CG (human) and 111 nM on PIK3CA (human).
Turning to `CN(C)C1CCN(C(=O)c2ccc(NC(=O)Nc3ccc(-c4nc5c(c(N6C7CCC6COC7)n4)CCNC5)cc3)cc2)CC1`, the half-inhibitory concentration (IC50) at PIK3CG (human) stood at 3720 nM; against PIK3CA (human) it was 321 nM.
The like results for `CS(=O)(=O)N1Cc2nc(-c3ccc(NC(=O)Nc4cccnc4)cc3)nc(N3CC4CCC(C3)O4)c2C1` were, in that order, above 10000 nM and 334 nM.
Consider `CS(=O)(=O)N1CCc2c(nc(-c3ccc(NC(=O)Nc4cccnc4)cc3)nc2N2C3CCC2COC3)C1`, for which the half-maximal inhibitory concentration (IC50) against PIK3CG (human) was 3990 nM; against PIK3CA (human), 118 nM.
The like results for `CNC(=O)Nc1ccc(-c2nc3c(c(N4C5CCC4COC5)n2)CCN(C)C3)cc1` were, in that order, above 10000 nM and 4410 nM.
For the molecule `CNC(=O)Nc1ccc(-c2nc3c(c(N4CC5CCC(C4)O5)n2)CNC3)cc1`, the half-maximal inhibitory concentration (IC50) is 3390 nM on PIK3CG (human) and 39 nM at PIK3CA (human).
`CN(C)C1CCN(C(=O)c2ccc(NC(=O)Nc3ccc(-c4nc5c(c(N6CC7CCC(C6)O7)n4)CCN(S(C)(=O)=O)C5)cc3)cc2)CC1`: the half-maximal inhibitory concentration (IC50) at PIK3CG (human) is above 10000 nM; at PIK3CA (human), 2690 nM.
The like results for `CN(C)C1CCN(C(=O)c2ccc(NC(=O)Nc3ccc(-c4nc5c(c(N6C7CCC6COC7)n4)CN(S(C)(=O)=O)C5)cc3)cc2)CC1` were, in that order, 573 nM and 67 nM.
For `CNC(=O)Nc1ccc(-c2nc3c(c(N4CCOCC4)n2)CNC3)cc1`, the IC50 on PIK3CG (human) was found to be 67 nM; on PIK3CA (human), 5 nM.
Taken in the same sequence, the figures for `CN(C)C1CCN(C(=O)c2ccc(NC(=O)Nc3ccc(-c4nc5c(c(N6CC7CCC(C6)O7)n4)CNC5)cc3)cc2)CC1` were above 10000 nM and 110 nM.
